Assay results as given in ChEMBL document CHEMBL1130969, “Potent 3-spiropiperidine growth hormone secretagogues” (Bioorg Med Chem Lett, 1998).

The compounds below were run against Growth hormone secretagogue receptor type 1 (Rattus norvegicus, UniProt O08725) (assay: In vitro growth hormone release was determined in rat pituitary cell assay). Settings: not given; call rule not given here.
Type: functional, cell-based, Pituitary gland cell

Chain of Growth hormone secretagogue receptor type 1 (O08725 whole entry): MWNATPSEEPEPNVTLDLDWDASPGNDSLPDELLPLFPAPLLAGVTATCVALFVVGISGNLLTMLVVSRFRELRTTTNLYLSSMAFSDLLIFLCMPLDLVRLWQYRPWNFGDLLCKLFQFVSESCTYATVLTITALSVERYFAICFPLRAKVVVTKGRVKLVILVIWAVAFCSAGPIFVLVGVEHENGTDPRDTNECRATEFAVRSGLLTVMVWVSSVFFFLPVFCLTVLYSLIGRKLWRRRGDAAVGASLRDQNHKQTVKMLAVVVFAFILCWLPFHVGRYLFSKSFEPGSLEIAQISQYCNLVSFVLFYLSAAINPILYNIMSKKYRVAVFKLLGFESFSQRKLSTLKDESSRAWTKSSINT

Row | SMILES | EC50
1 | CC(C)(N)C(=O)N[C@H](Cc1c[nH]c2ccccc12)C(=O)N1CCC2(CC1)Cc1ccccc1C2=O | 42 nM
2 | CC(C)(N)C(=O)N[C@H](Cc1c[nH]c2ccccc12)C(=O)N1CCCC2(Cc3ccccc3C2=O)C1 (stereo partly drawn) | 20 nM
3 | CC(C)(N)C(=O)N[C@H](Cc1c[nH]c2ccccc12)C(=O)N1CCCC2(CC(O)c3ccccc3O2)C1 (stereo partly drawn) | 1.2 nM
4 | CC(C)(N)C(=O)N[C@H](Cc1c[nH]c2ccccc12)C(=O)N1CCCC2(CC(=O)c3ccccc3O2)C1 (stereo partly drawn) | 1.8 nM
5 | CC(C)(N)C(=O)N[C@H](Cc1c[nH]c2ccccc12)C(=O)N1CCC2(CCCc3ccccc32)CC1 | 66 nM
6 | CC(C)(N)C(=O)N[C@H](Cc1c[nH]c2ccccc12)C(=O)N1CCC2(CC1)Cc1ccccc1C2O (stereo partly drawn) | 19 nM
7 | CC(C)(N)C(=O)N[C@H](Cc1c[nH]c2ccccc12)C(=O)N1CCC[C@]2(CC(=O)c3ccccc3O2)C1 | 57 nM
8 | CC(C)(N)C(=O)N[C@H](Cc1c[nH]c2ccccc12)C(=O)N1CCC2(CCc3ccccc3O2)CC1 | 25 nM
9 | CC(C)(N)C(=O)N[C@H](Cc1c[nH]c2ccccc12)C(=O)N1CCC2(CC1)CC(=O)c1ccccc1O2 | 37 nM
10 | CC(C)(N)C(=O)N[C@H](Cc1c[nH]c2ccccc12)C(=O)N1CCC2(CC1)Cc1ccccc1C2 | 37 nM
11 | CC(C)(N)C(=O)N[C@H](Cc1c[nH]c2ccccc12)C(=O)N1CCCC2(CCc3ccccc32)C1 (stereo partly drawn) | 630 nM
12 | CC(C)(N)C(=O)N[C@H](Cc1c[nH]c2ccccc12)C(=O)N1CCCC2(CCc3ccccc3O2)C1 (stereo partly drawn) | 2.9 nM
13 | CC(C)(N)C(=O)N[C@H](Cc1c[nH]c2ccccc12)C(=O)N1CCC[C@@]2(CC(=O)c3ccccc3O2)C1 | 1.2 nM
14 | CC(C)(N)C(=O)N[C@H](Cc1c[nH]c2ccccc12)C(=O)N1CCC2(CC1)CC(O)c1ccccc1O2 (stereo partly drawn) | 16 nM
15 | CC(C)(N)CC(=O)N[C@@H]1CCc2ccccc2N(Cc2ccc(-c3ccccc3-c3nnn[nH]3)cc2)C1=O | 60 nM
16 | CC(C)(N)C(=O)N[C@H](Cc1c[nH]c2ccccc12)C(=O)N1CCCC2(Cc3ccccc3C2)C1 | 60 nM
17 | CC(C)(N)C(=O)N[C@H](Cc1c[nH]c2ccccc12)C(=O)N1CCC2(CCc3ccccc32)CC1 [L-162752] | 14 nM

Species: Rattus norvegicus
Test: In vitro growth hormone release was determined in rat pituitary cell assay; NA means not active
Type: functional
Settings: pituitary gland cell

Row | SMILES | EC50
18 | CC(C)(N)C(=O)N[C@H](Cc1c[nH]c2ccccc12)C(=O)N1CCCC2(Cc3ccccc3C2O)C1 (stereo partly drawn) | Not Active
